Positions of bridges follow the written chain, without caps; N, C: chain ends. Non-standard residues stand in square brackets, D forms with d. Residues, ends and D or L forms follow the SMILES beside them. Bip(4'-COOH) = N[C@@H](Cc1ccc(-c2ccc(C(=O)O)cc2)cc1)C(=O)O; Ala(morpholin-4-yl) = N[C@@H](CN1CCOCC1)C(=O)O; Bip = N[C@@H](Cc1ccc(-c2ccccc2)cc1)C(=O)O; Phe(4-NH2) = Nc1ccc(C[C@H](N)C(=O)O)cc1; Val(3-OH) = CC(C)(O)[C@H](N)C(=O)O; 2Pal = N[C@@H](Cc1ccccn1)C(=O)O; 3Pal = N[C@@H](Cc1cccnc1)C(=O)O; Sar = CNCC(=O)O

Sequence of TNFα (P01375 77-233 limits assumed): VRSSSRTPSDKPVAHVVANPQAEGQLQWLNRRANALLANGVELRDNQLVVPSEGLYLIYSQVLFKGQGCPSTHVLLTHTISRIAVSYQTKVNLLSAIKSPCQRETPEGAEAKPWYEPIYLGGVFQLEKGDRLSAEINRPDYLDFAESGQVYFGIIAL

This test addresses TNFα (Homo sapiens, UniProt P01375). Briefly: TNF-Induced HEK-Blue Assay. The test is classed as cell-based. The settings on record: HEK-Blue-CD40L cells, NF-kB-driven secreted alkaline phosphatase reporter; TNFα 0.5 ng/ml; 18 h; read-out: TNF induced HEK-Blue assay IC50 value.
Turning to `CC(C)C[C@@H]1NC(=O)[C@H](Cc2ccc(O)cc2)NC(=O)[C@H](C(C)C)NC(=O)[C@H](Cc2cccnc2)NC(=O)[C@H](C(C)C)NC(=O)[C@H](CCCNC(=N)N)NC(=O)[C@H](CC(=O)O)NC(=O)[C@H](Cc2ccc(O)cc2)NC(=O)CN(C)C(=O)[C@H](Cc2ccc(-c3ccccc3)cc2)NC(=O)[C@H](Cc2ccc(-c3ccccc3)cc2)NC(=O)[C@H](CN2CCOCC2)NC(=O)CSC[C@@H](C(=O)NCC(N)=O)NC1=O` [Example 107] ({CH2CO}-[Ala(morpholin-4-yl)][Bip][Bip][Sar]YDRV[3Pal]VYLCG-NH2; thioether N-13), the IC50 (as a rule, the concentration at which inhibition is half-maximal) is 50 to 200 nM.
In the case of `CC(C)C[C@@H]1NC(=O)[C@H](CCCNC(=N)N)NC(=O)[C@H](C(C)C)NC(=O)[C@H](Cc2ccccn2)NC(=O)[C@H](C(C)C)NC(=O)[C@H](CCCNC(=N)N)NC(=O)[C@H](CC(=O)O)NC(=O)[C@@H]2CCCN2C(=O)CN(C)C(=O)[C@H](Cc2ccc(-c3ccccc3)cc2)NC(=O)[C@H](Cc2ccc(-c3ccccc3)cc2)NC(=O)[C@H](C(C)(C)O)NC(=O)CSC[C@@H](C(=O)NCC(N)=O)NC1=O` [Example 108] ({CH2CO}-[Val(3-OH)][Bip][Bip][Sar]PDRV[2Pal]VRLCG-NH2; thioether N-13) it was 50 to 200 nM; in that of `CC(C)C[C@@H]1NC(=O)[C@H](Cc2ccc(O)cc2)NC(=O)[C@H](C(C)C)NC(=O)[C@H](Cc2ccccn2)NC(=O)[C@H](C(C)C)NC(=O)[C@H](CCCNC(=N)N)NC(=O)[C@H](CC(=O)O)NC(=O)[C@H](Cc2ccc(O)cc2)NC(=O)CN(C)C(=O)[C@H](Cc2ccc(-c3ccccc3)cc2)NC(=O)[C@H](Cc2ccc(-c3ccccc3)cc2)NC(=O)[C@H](CN2CCOCC2)NC(=O)CSC[C@@H](C(=O)NCC(N)=O)NC1=O` [Example 109] ({CH2CO}-[Ala(morpholin-4-yl)][Bip][Bip][Sar]YDRV[2Pal]VYLCG-NH2; thioether N-13), 200 to 2000 nM; in that of `CC(C)C[C@@H]1NC(=O)[C@H](Cc2ccc(O)cc2)NC(=O)[C@H](C(C)C)NC(=O)[C@@H]2CCCN2C(=O)[C@H](Cc2ccc(O)cc2)NC(=O)[C@H](CCCNC(=N)N)NC(=O)[C@H](CC(=O)O)NC(=O)[C@H](Cc2ccc(O)cc2)NC(=O)CN(C)C(=O)[C@H](Cc2ccc(-c3ccccc3)cc2)NC(=O)[C@H](Cc2ccc(-c3ccccc3)cc2)NC(=O)[C@H](C(C)(C)O)NC(=O)CSC[C@@H](C(=O)NCC(N)=O)NC1=O` [Example 110] ({CH2CO}-[Val(3-OH)][Bip][Bip][Sar]YDRYPVYLCG-NH2; thioether N-13), 50 to 200 nM.
Turning to `CC(C)C[C@@H]1NC(=O)[C@H](Cc2ccc(O)cc2)NC(=O)[C@H](C(C)C)NC(=O)[C@@H]2CCCN2C(=O)[C@H](Cc2ccc(O)cc2)NC(=O)[C@H](CCCNC(=N)N)NC(=O)[C@H](CC(=O)O)NC(=O)[C@@H]2CCCN2C(=O)CN(C)C(=O)[C@H](Cc2ccc(-c3ccccc3)cc2)NC(=O)[C@H](Cc2ccc(-c3ccccc3)cc2)NC(=O)[C@H](C(C)(C)O)NC(=O)CSC[C@@H](C(=O)NCC(N)=O)NC1=O` [Example 111] ({CH2CO}-[Val(3-OH)][Bip][Bip][Sar]PDRYPVYLCG-NH2; thioether N-13), the 50% inhibitory concentration (IC50) is 200 to 2000 nM.
For `CC(C)C[C@@H]1NC(=O)[C@H](Cc2ccc(O)cc2)NC(=O)[C@H](C(C)C)NC(=O)[C@@H]2CCCN2C(=O)[C@H](Cc2ccc(N)cc2)NC(=O)[C@H](CCCNC(=N)N)NC(=O)[C@H](CC(=O)O)NC(=O)[C@H](Cc2ccc(O)cc2)NC(=O)CN(C)C(=O)[C@H](Cc2ccc(-c3ccccc3)cc2)NC(=O)[C@H](Cc2ccc(-c3ccccc3)cc2)NC(=O)[C@H](CN2CCOCC2)NC(=O)CSC[C@@H](C(=O)NCC(N)=O)NC1=O` [Example 112] ({CH2CO}-[Ala(morpholin-4-yl)][Bip][Bip][Sar]YDR[Phe(4-NH2)]PVYLCG-NH2; thioether N-13), the IC50 was in the range of 200 to 2000 nM.
In the case of `CC(C)C[C@@H]1NC(=O)[C@H](Cc2ccc(O)cc2)NC(=O)[C@H](C(C)C)NC(=O)[C@@H]2CCCN2C(=O)[C@H](Cc2ccc(N)cc2)NC(=O)[C@H](CCCNC(=N)N)NC(=O)[C@H](CC(=O)O)NC(=O)[C@@H]2CCCN2C(=O)CN(C)C(=O)[C@H](Cc2ccc(-c3ccccc3)cc2)NC(=O)[C@H](Cc2ccc(-c3ccccc3)cc2)NC(=O)[C@H](CN2CCOCC2)NC(=O)CSC[C@@H](C(=O)NCC(N)=O)NC1=O` [Example 113] ({CH2CO}-[Ala(morpholin-4-yl)][Bip][Bip][Sar]PDR[Phe(4-NH2)]PVYLCG-NH2; thioether N-13), the IC50 lay within 200 to 2000 nM.
To `CC(C)C[C@@H]1NC(=O)[C@H](CCCNC(=N)N)NC(=O)[C@H](C(C)C)NC(=O)[C@@H]2CCCN2C(=O)[C@H](Cc2cccnc2)NC(=O)[C@H](CCCNC(=N)N)NC(=O)[C@H](CC(=O)O)NC(=O)[C@H](Cc2ccc(O)cc2)NC(=O)CN(C)C(=O)[C@H](Cc2ccc(-c3ccccc3)cc2)NC(=O)[C@H](Cc2ccc(-c3ccccc3)cc2)NC(=O)[C@H](CN2CCOCC2)NC(=O)CSC[C@@H](C(=O)NCC(N)=O)NC1=O` [Example 114] ({CH2CO}-[Ala(morpholin-4-yl)][Bip][Bip][Sar]YDR[3Pal]PVRLCG-NH2; thioether N-13) belongs 200 to 2000 nM; to `CC(C)C[C@@H]1NC(=O)[C@H](Cc2ccc(O)cc2)NC(=O)[C@H](C(C)C)NC(=O)[C@@H]2CCCN2C(=O)[C@H](Cc2cccnc2)NC(=O)[C@H](CCCNC(=N)N)NC(=O)[C@H](CC(=O)O)NC(=O)[C@H](Cc2ccc(O)cc2)NC(=O)CN(C)C(=O)[C@H](Cc2ccc(-c3ccccc3)cc2)NC(=O)[C@H](Cc2ccc(-c3ccccc3)cc2)NC(=O)[C@H](CN2CCOCC2)NC(=O)CSC[C@@H](C(=O)NCC(N)=O)NC1=O` [Example 115] ({CH2CO}-[Ala(morpholin-4-yl)][Bip][Bip][Sar]YDR[3Pal]PVYLCG-NH2; thioether N-13), 200 to 2000 nM; to `CC(C)C[C@@H]1NC(=O)[C@H](Cc2ccc(O)cc2)NC(=O)[C@H](C(C)C)NC(=O)[C@@H]2CCCN2C(=O)[C@H](Cc2cccnc2)NC(=O)[C@H](CCCNC(=N)N)NC(=O)[C@H](CC(=O)O)NC(=O)[C@@H]2CCCN2C(=O)CN(C)C(=O)[C@H](Cc2ccc(-c3ccccc3)cc2)NC(=O)[C@H](Cc2ccc(-c3ccccc3)cc2)NC(=O)[C@H](CN2CCOCC2)NC(=O)CSC[C@@H](C(=O)NCC(N)=O)NC1=O` [Example 116] ({CH2CO}-[Ala(morpholin-4-yl)][Bip][Bip][Sar]PDR[3Pal]PVYLCG-NH2; thioether N-13), 50 to 200 nM.
As to `CC(C)C[C@@H]1NC(=O)[C@H](CCCNC(=N)N)NC(=O)[C@H](C(C)C)NC(=O)[C@@H]2CCCN2C(=O)[C@H](Cc2cccnc2)NC(=O)[C@@H](CCCNC(=N)N)NC(=O)[C@H](CC(=O)O)NC(=O)[C@H](Cc2ccc(O)cc2)NC(=O)CN(C)C(=O)[C@H](Cc2ccc(-c3ccccc3)cc2)NC(=O)[C@H](Cc2ccc(-c3ccccc3)cc2)NC(=O)[C@H](CN2CCOCC2)NC(=O)CSC[C@@H](C(=O)NCC(N)=O)NC1=O` [Example 117] ({CH2CO}-[Ala(morpholin-4-yl)][Bip][Bip][Sar]YD[dR][3Pal]PVRLCG-NH2; thioether N-13), the IC50 is 200 to 2000 nM.
`CC(C)C[C@@H]1NC(=O)[C@H](Cc2ccc(O)cc2)NC(=O)[C@H](C(C)C)NC(=O)[C@@H]2CCCN2C(=O)[C@H](Cc2cccnc2)NC(=O)[C@@H](CCCNC(=N)N)NC(=O)[C@H](CC(=O)O)NC(=O)[C@H](Cc2ccc(O)cc2)NC(=O)CN(C)C(=O)[C@H](Cc2ccc(-c3ccccc3)cc2)NC(=O)[C@H](Cc2ccc(-c3ccccc3)cc2)NC(=O)[C@H](CN2CCOCC2)NC(=O)CSC[C@@H](C(=O)NCC(N)=O)NC1=O` [Example 118] ({CH2CO}-[Ala(morpholin-4-yl)][Bip][Bip][Sar]YD[dR][3Pal]PVYLCG-NH2; thioether N-13): the IC50 was 200 to 2000 nM.
In the case of `CC(C)C[C@@H]1NC(=O)[C@H](Cc2ccc(O)cc2)NC(=O)[C@H](C(C)C)NC(=O)[C@@H]2CCCN2C(=O)[C@H](Cc2cccnc2)NC(=O)[C@@H](CCCNC(=N)N)NC(=O)[C@H](CC(=O)O)NC(=O)[C@@H]2CCCN2C(=O)CN(C)C(=O)[C@H](Cc2ccc(-c3ccccc3)cc2)NC(=O)[C@H](Cc2ccc(-c3ccccc3)cc2)NC(=O)[C@H](CN2CCOCC2)NC(=O)CSC[C@@H](C(=O)NCC(N)=O)NC1=O` [Example 119] ({CH2CO}-[Ala(morpholin-4-yl)][Bip][Bip][Sar]PD[dR][3Pal]PVYLCG-NH2; thioether N-13), the IC50 was in the range of 200 to 2000 nM.
Consider `CC(C)C[C@@H]1NC(=O)[C@H](CCCNC(=N)N)NC(=O)[C@H](C(C)C)NC(=O)[C@@H]2CCCN2C(=O)[C@H](C(C)C)NC(=O)[C@H](CCCNC(=N)N)NC(=O)[C@H](CC(=O)O)NC(=O)[C@@H]2CCCN2C(=O)CN(C)C(=O)[C@H](Cc2ccc(-c3ccccc3)cc2)NC(=O)[C@H](Cc2ccc(-c3ccc(C(=O)O)cc3)cc2)NC(=O)[C@H](CN2CCOCC2)NC(=O)CSC[C@@H](C(=O)NCC(N)=O)NC1=O` [Example 120] ({CH2CO}-[Ala(morpholin-4-yl)][Bip(4'-COOH)][Bip][Sar]PDRVPVRLCG-NH2; thioether N-13), for which the IC50 fell in the range of 50 to 200 nM.
In the case of `CC(C)C[C@@H]1NC(=O)[C@H](Cc2ccc(O)cc2)NC(=O)[C@H](C(C)C)NC(=O)[C@@H]2CCCN2C(=O)[C@H](C(C)C)NC(=O)[C@H](CCCNC(=N)N)NC(=O)[C@H](CC(=O)O)NC(=O)[C@H](Cc2ccc(O)cc2)NC(=O)CN(C)C(=O)[C@H](Cc2ccc(-c3ccccc3)cc2)NC(=O)[C@H](Cc2ccc(-c3ccc(C(=O)O)cc3)cc2)NC(=O)[C@H](CN2CCOCC2)NC(=O)CSC[C@@H](C(=O)NCC(N)=O)NC1=O` [Example 121] ({CH2CO}-[Ala(morpholin-4-yl)][Bip(4'-COOH)][Bip][Sar]YDRVPVYLCG-NH2; thioether N-13) it was 200 to 2000 nM; in that of `CC(C)C[C@@H]1NC(=O)[C@H](CCCNC(=N)N)NC(=O)[C@H](C(C)C)NC(=O)[C@@H]2CCCN2C(=O)[C@H](Cc2ccc(O)cc2)NC(=O)[C@H](CCCNC(=N)N)NC(=O)[C@H](CC(=O)O)NC(=O)[C@@H]2CCCN2C(=O)CN(C)C(=O)[C@H](Cc2ccc(-c3ccccc3)cc2)NC(=O)[C@H](Cc2ccc(-c3ccc(C(=O)O)cc3)cc2)NC(=O)[C@H](CN2CCOCC2)NC(=O)CSC[C@@H](C(=O)NCC(N)=O)NC1=O` [Example 122] ({CH2CO}-[Ala(morpholin-4-yl)][Bip(4'-COOH)][Bip][Sar]PDRYPVRLCG-NH2; thioether N-13), 200 to 2000 nM.

The record behind these values is patent US20250145665A1, “MACROCYCLIC PEPTIDES USEFUL AS MODULATORS OF TNF ALPHA” (Bristol-Myers Squibb Company, priority 2023, published 2025).
